Measurements published in paper doi:10.1101/2025.04.25.650653, “Hierarchical small molecule inhibition of MYST acetyltransferases” (bioRxiv, 2025).
Where “and” joins values, the source holds several entries; their conditions need not be identical. Equal entries are not always repeated.

Legend:
[1] = system: MYST KAT complexes (KAT7, KAT8, KAT5) in HeLa nuclear extracts; experiment: Competitive chemoproteomic profiling (H3K14-CoA affinity capture) of native MYST complexes; format: binding
Method: Proteins belonging to multiple KAT complexes are characterized by distinct competition profiles.
The beads were washed three times
during the bead coating step.
hours with end-over-end mixing.
After magnetic separation for 3 minutes,
conditions, and both eluates were combined.
Membranes were probed with antibodies

H4K16Ac (KAT8) = experiment: Histone acetylation biomarker western blot, MCF-7; format: cell-based; conditions: MCF-7 cells, 24 h, up to 30 μM
Method: Target engagement was assessed using the panel of MYST-dependent histone acetylation biomarkers defined above. […] While WM-3835 has been applied to study KAT7, its initial publication alludes to its ability to inhibit both KAT6A/B and KAT7.[14], [43] […] All commercial vendors currently market WM-3835 as a KAT7 inhibitor.
General materials and methods
Total protein on western blots was […]
manufacturer's protocols.
KAT capture and competitive chemoproteomic profiling […]
for 2 hours, then lyophilized.
12 μL triethylamine. […] The beads were then magnetically separated […]
distinguish between tightly grouped and diffuse clusters, compactness was quantified by calculating the average pairwise Euclidean distance between all points within each cluster. Clusters with lower average

H3K23Ac (KAT6A/B) = experiment: Histone biomarker bottom-up LC-MS/MS, MCF-7; format: cell-based; conditions: for Ratio, H3_18_26 K23ac: Replicates 1-3
From the text: In this approach. […] Histones are then extracted from cell pellets and chemically derivatized with propionic anhydride, digested with trypsin, subjected to a second round of propionylation, and analyzed by LC-MS/MS. Measuring the relative intensity of modified versus unmodified forms of individual histone peptides enables simultaneous monitoring of multiple potential biomarkers of MYST inhibition. To minimize false positives, we focused on abundant and reproducible modifications (average stoichiometry of greater than 1% across triplicate samples, standard deviation less than or equal to the average measurement). To account for potential histone modification crosstalk, changes in both acetylated and methylated peptides were evaluated. 38 modified peptides passed this reproducible detection threshold including several established KAT biomarkers[41] including H3K9Ac (KAT2A/B), H3K18Ac (KAT3A/B), H3K14Ac (KAT7), H3K23Ac (KAT6A/B), H4K16Ac (KAT8), and H2A.ZK4/K7Ac (KAT5; Fig. 4B).
Genetic perturbations have unambiguously determined the dependence of H3K23Ac on KAT6A/B.[9], [41] The H3K23Ac biomarker critically complements chemoproteomics by allowing sensitive assessment of KAT6A and KAT6B activity, whose active site occupancy is otherwise difficult to assess. […] This is significant since several studies have used H3K9Ac as a proxy for KAT6A/B inhibition (Table S7),[8], [42] even though its regulation is most commonly attributed to KAT2A/B.[41] Since LC-MS/MS assays require specialized equipment and technical expertise, we also validated a panel of histone acetylation antibodies that recapitulate the dose-dependent inhibition of MYST targets by western blot (Fig. 4E). […]
nuclei were pelleted by centrifugation (600 rcf, 4°C, 5 min). Pelleted nuclei were washed twice with 150 μL of detergent-free NIB buffer, followed by centrifugation (600 rcf, 4°C, 5 min) to remove all detergent.
Nuclei were then resuspended in 400 μL of 0.4 N H₂SO₄ and rotated at 4°C overnight for acid extraction of histones. The following day, samples were centrifuged (11,000 rcf, 4°C, 10 min) and the histone-containing supernatant was transferred to a fresh tube. Trichloroacetic acid (100% TCA) was added to achieve a final concentration of 20% (v/v), tubes were inverted once to mix, and histone precipitation was performed on ice for at least 3 hours or overnight at 4°C. Precipitated histones were collected by centrifugation (11,000 rcf, 4°C, 10 min) and the supernatant carefully removed, leaving a visible film of histones on the tube wall or bottom. Histone pellets were subjected to sequential washes with 1 mL of ice-cold acidified acetone (0.1% 12 N HCl) followed by 1 mL of 100% ice-cold acetone, with centrifugation (11,000 rcf, 4°C, 5 min) after each wash. Samples were air-dried at room temperature, resuspended in 40 µL of ddH₂O, and protein […]
analysis, 1-2 µg of purified histones were loaded per lane and processed according to the general immunoblotting protocol described in General Materials and Methods.
Analysis of histone modifications by LC-MS/MS
Preparation of histone samples for LC-MS/MS was performed analogously to the procedure for immunoblotting above, with the following modifications. MCF7 cells (4.2 × 106) were seeded in 15 cm dishes and treated with PF-9363 or vehicle. Experiments were performed in triplicate. Following treatment and PBS washing, cells were scraped and collected in 15 mL falcon tubes, pelleted (500 rcf, 4°C, 5 min), resuspended in 1 mL cold PBS, transferred to microcentrifuge tubes, and pelleted again before flash-freezing in liquid nitrogen for storage at -80°C. For extraction, cell pellets (~100 μL) were resuspended in NIB buffer at a 1:10 ratio, and cells were lysed with NIB buffer containing 0.2% NP-40 for 8 minutes on ice. Nuclei were pelleted at 1,000 rcf for 8 minutes and washed three times with 500 μL detergent-free NIB

[2] = system: proteins captured by H3K14-CoA resin from HeLa nuclear extracts; experiment: Proteome-wide competitive chemoproteomic profiling (H3K14-CoA beads, TMT LC-MS/MS); format: binding; conditions: for Log2FC PF9363-100nM / PF9363-0nM / Log2FC PF9363-1000nM / PF9363-0nM / Log2FC PF9363-10000nM / PF9363-0nM: H3K14-CoA beads, TMT

`COc1cccc(OC)c1S(=O)(=O)Nc1noc2cc(Cn3cccn3)cc(OC)c12` [PF-9363] was tested, and the “competition of capture of KAT8-containing MSL and NSL complexes and KAT5-containing NuA4 complex” value ([1]; 1 and 10 μM, HeLa nuclear extracts) was “competed capture of all CORUM-annotated members”, the “sensitivity of KAT complexes, general order” value ([1]; HeLa nuclear extracts, chemoproteomic competition) was “KAT7 > KAT8 > KAT5” and the “hierarchical inhibition order of native KAT complexes” value ([1]; chemoproteomic profiling and histone acetylation biomarkers) was “KAT6A/B > KAT7 >> KAT8 > KAT5”. For the same compound, the “inhibition of KAT8 (H4K16Ac)” value (H4K16Ac (KAT8)) was “able to inhibit KAT8-catalyzed H4K16Ac”, the “reduction of H3K23Ac” value (H3K23Ac (KAT6A/B); 0.1 μM, 24 h, MCF-7 cells) was ~ 80% and the “Fold-change 0.1 v 30, H3_18_26 K23ac” value (H3K23Ac (KAT6A/B); KAT marker KAT6A/B, PF-9363 0.1 v 30) was 7.11. The “Average ratio, H3_18_26 K23ac” value (H3K23Ac (KAT6A/B); KAT marker KAT6A/B, PF-9363 (0.1 mM)) was 0.0330, the “Average ratio, H3_18_26 K23ac” value (H3K23Ac (KAT6A/B); KAT marker KAT6A/B, PF-9363 (30 mM)) was 0.0046 and the “Ratio, H3_18_26 K23ac” value (H3K23Ac (KAT6A/B); KAT marker KAT6A/B, dose 0.1) was 0.02851 and 0.03904 and 0.03134. For the same compound, the “Ratio, H3_18_26 K23ac” value (H3K23Ac (KAT6A/B); KAT marker KAT6A/B, dose 1) was 0.02199 and 0.02064 and 0.0179, the “Ratio, H3_18_26 K23ac” value (H3K23Ac (KAT6A/B); KAT marker KAT6A/B, dose 10) was 0.01047 and 0 and 0.009458 and the “Ratio, H3_18_26 K23ac” value (H3K23Ac (KAT6A/B); KAT marker KAT6A/B, dose 30) was 0 and 0.006901 and 0.007012. For the same compound, the “competition of capture of NAT10, ESCO1, KAT2B (other clusters)” value ([2]; 0, 0.1, 1, 10 μM) was “relatively insensitive”, the “Log2FC PF9363-100nM / PF9363-0nM” value ([2]; protein BLM (P54132)) was 0.02 and the “Log2FC PF9363-1000nM / PF9363-0nM” value ([2]; protein BLM (P54132)) was 0.03. For the same compound, the “Log2FC PF9363-10000nM / PF9363-0nM” value ([2]; protein BLM (P54132)) was 0.05, the “concentration at which BRPF3 capture is competed” value ([2]; protein BRPF3) was 10 µM and the “Log2FC PF9363-100nM / PF9363-0nM” value ([2]; protein MKI67 (P46013)) was -0.01. The “Log2FC PF9363-1000nM / PF9363-0nM” value ([2]; protein MKI67 (P46013)) was -0.01, the “Log2FC PF9363-10000nM / PF9363-0nM” value ([2]; protein MKI67 (P46013)) was 0.02 and the “Log2FC PF9363-100nM / PF9363-0nM” value ([2]; protein NUMA1 (Q14980)) was 0.02. The “Log2FC PF9363-1000nM / PF9363-0nM” value ([2]; protein NUMA1 (Q14980)) was 0.05, the “Log2FC PF9363-10000nM / PF9363-0nM” value ([2]; protein NUMA1 (Q14980)) was 0.06 and the “Log2FC PF9363-100nM / PF9363-0nM” value ([2]; protein TRRAP (Q9Y4A5)) was -0.05. The “Log2FC PF9363-1000nM / PF9363-0nM” value ([2]; protein TRRAP (Q9Y4A5)) was -0.12 and the “Log2FC PF9363-10000nM / PF9363-0nM” value ([2]; protein TRRAP (Q9Y4A5)) was -0.22.
